Measurements: ChEMBL document CHEMBL1134816, “Synthesis of 7,8-disubstituted benzolactam-V8 and its binding to protein kinase C” (Bioorg Med Chem Lett, 2001)

Experiments:
[1] = target: Protein kinase C alpha type (Homo sapiens, UniProt P17252); experiment: Displacement phorbol 12,13-dibutyrate(PDBU) binding from recombinant Protein kinase C alpha
[2] = target: T1, Protein kinase C epsilon type (Homo sapiens, UniProt Q02156); experiment: Binding affinity for protein kinase C epsilon
T1 sequence (Q02156 whole entry): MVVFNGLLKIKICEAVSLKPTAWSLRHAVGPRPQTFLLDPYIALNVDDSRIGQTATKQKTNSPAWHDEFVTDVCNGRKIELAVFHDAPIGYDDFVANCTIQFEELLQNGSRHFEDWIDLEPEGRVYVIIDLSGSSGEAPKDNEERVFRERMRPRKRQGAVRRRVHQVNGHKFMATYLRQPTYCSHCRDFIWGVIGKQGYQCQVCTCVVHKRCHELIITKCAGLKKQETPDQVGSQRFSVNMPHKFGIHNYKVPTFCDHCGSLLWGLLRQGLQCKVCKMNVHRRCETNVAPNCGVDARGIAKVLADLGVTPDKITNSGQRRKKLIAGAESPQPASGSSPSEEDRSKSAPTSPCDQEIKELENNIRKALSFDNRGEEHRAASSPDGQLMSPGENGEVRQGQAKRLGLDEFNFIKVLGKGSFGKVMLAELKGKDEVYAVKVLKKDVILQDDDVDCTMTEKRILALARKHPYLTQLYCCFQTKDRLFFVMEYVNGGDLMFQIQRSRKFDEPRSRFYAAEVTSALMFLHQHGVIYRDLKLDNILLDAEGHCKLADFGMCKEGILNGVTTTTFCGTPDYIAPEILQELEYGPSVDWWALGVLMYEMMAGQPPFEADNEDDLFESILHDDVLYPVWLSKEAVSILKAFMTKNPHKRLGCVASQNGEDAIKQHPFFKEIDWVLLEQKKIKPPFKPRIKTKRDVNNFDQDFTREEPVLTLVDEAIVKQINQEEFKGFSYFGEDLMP

[3] = target: Protein kinase C delta type (Homo sapiens, UniProt Q05655); experiment: Binding affinity for protein kinase C delta
Protein kinase C delta type, sequence (Q05655 whole entry): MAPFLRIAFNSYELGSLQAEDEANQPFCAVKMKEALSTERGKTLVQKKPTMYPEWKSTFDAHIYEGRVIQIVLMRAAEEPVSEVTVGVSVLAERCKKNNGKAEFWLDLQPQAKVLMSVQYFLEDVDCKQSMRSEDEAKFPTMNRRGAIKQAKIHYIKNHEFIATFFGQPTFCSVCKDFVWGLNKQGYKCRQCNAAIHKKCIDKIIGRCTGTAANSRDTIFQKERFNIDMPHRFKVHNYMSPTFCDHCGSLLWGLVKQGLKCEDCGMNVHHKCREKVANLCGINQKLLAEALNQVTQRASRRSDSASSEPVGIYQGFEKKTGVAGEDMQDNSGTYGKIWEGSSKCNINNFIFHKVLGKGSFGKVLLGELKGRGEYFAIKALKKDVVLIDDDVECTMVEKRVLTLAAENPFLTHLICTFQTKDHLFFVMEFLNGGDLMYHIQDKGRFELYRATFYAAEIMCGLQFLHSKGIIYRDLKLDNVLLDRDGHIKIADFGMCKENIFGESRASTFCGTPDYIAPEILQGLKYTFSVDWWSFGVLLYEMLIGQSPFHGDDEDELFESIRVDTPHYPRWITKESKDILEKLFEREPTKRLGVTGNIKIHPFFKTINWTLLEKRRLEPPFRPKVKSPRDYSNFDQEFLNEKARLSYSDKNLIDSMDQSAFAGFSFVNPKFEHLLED

| Ki [1] [nM] | Ki [2] [nM] | Ki [3] [nM] | Structure (SMILES) |
| --- | --- | --- | --- |
| 7160 |  |  | COc1cccc2c1C[C@@H](CO)NC(=O)[C@H](C(C)C)N2C |
| 45.6 | 121 | 91.1 | CCCCCCCCC#Cc1ccc2c(c1OC)C[C@@H](CO)NC(=O)[C@H](C(C)C)N2C |
